“And” between values parts separate entries of the source, which are not always exact repeats. Equal values may be shown once. Where a name gives a salt, the structure may show the parent alone. Read-outs that look alike come from different tables or passages of the source.
Test system: ATF4 translation (ATF4 pathway), SH-SY5Y-ATF4-NanoLuc cells
Assay: ATF4 cell based assay (ATF4 5'-UTR NanoLuc luciferase reporter, Thapsigargin induced cellular stress)
Details: read-out: average ATF4 pathway inhibitory activity (IC50)
Source text: The ATF4 reporter assay measures the effect of Thapsigargin induced cellular stress on ATF4 expression. For this reporter assay, a stable cell line was created by transfecting SH-SY5Y cells with a plasmid containing the NanoLuc® luciferase gene fused to the 5′-UTR of ATF4, under the control of the CMV promoter. The ATF4 5′-UTR contains two open reading frames which mediate the cellular stress-dependent translation of the reporter gene. Clones stably expressing the reporter construct were isolated and selected based on the luminescence response to thapsigargin and inhibition of this signal by test compounds. Briefly, SH-SY5Y-ATF4-NanoLuc cells were challenged with Thapsigargin for 14-18 hours to determine the stress effect with or without test compounds.
Cells were propagated in growth media consisting of 90% DMEM F12 (InVitrogen #11320-033), 10% Fetal Bovine Serum (Gibco #10438-026), 5 mM Glutamax (Gibco #35050-061), 5 mM Hepes, (Gibco #15630-080), and 0.5 mg/ml Geneticin (Gibco #10131-027). Cells were prepared for the assay by removing all media from cells, washing the plated cells with phosphate buffered saline, and detached by adding a solution comprised of 10% Tryple express solution (InVitrogen12604-021) and 90% enzyme-free cell dissociation buffer HANKS base (Gibco 13150-016). The trypsin was deactivated by adding assay media comprised of 90% phenol-red free DMEM F12 (InVitrogen, 11039), 10% Fetal Bovine Serum (Gibco #10438-026), (5 mM Glutamax (Gibco #35050-061), 5 mM Hepes, (Gibco #15630-080), and 0.5 mg/ml Geneticin (Gibco #10131-027). Suspended cells were spun down at 300 g for 5 min, the supernatant was removed and the cell pellet was suspended in warm media (30-37° C.) comprised as above at (1e6 cell/ml).
Assay plates were prepared by adding 250 nL of compound stock solution in 100% DMSO to each well, followed by dispensing 20 microliters/well cell suspension to deliver 15-20 k cell/well. Cells were incubated for 1 hour at 37° C. Then, 5 μL of 1.5 μM or 1 μM of Thapsigargin (final concentration: 200-300 nM) was added to each well of cells. Assay plates containing cells were incubated for 14-18 hours at 37° C.
The measurement of luciferase produced by the ATF4 constructs was measured as follows. Aliquots of the Nano-Glo reagent (Nano-Glo® Luciferase Assay Substrate, Promega, N113, Nano-Glo® Luciferase Assay Buffer, Promega, N112 (parts of Nano-Glo® Luciferase Assay System, N1150) were brought to room temperature, the substrate and buffer were mixed according to manufacturer's instructions. The cell plates were equilibrated to room temperature. 25 microliters/well of the mixed Nano-Glo reagent were dispensed into assay wells and pulse spun to settle contents and the plate was sealed with film. The plates were incubated at room temperature for 1 hour before detecting luminescence on an Envision plate reader.
Compounds of the invention are tested for activity against ATF4 translation in the above assay.

[1] = SH-SY5Y-ATF4-NanoLuc cells challenged with Thapsigargin for 14-18 hours, average of two or more experimental runs

IC50 [1]	Compound	IC50 [nM]
101 to 1000 nM	O=C(COc1ccc(Cl)cc1)NCC1CCN(C(=O)N2CCc3cc(Cl)ccc3C2)C1 (centres unmarked) [Example 24, N-((1-(6-chloro-1,2,3,4-tetrahydroisoquinoline-2-carbonyl)pyrrolidin-3-yl)methyl)-2-(4-chlorophenoxy)acetamide]	–
< 100 nM	CC1(CNC(=O)COc2ccc(Cl)cc2)CCN(CCOc2ccc(Cl)cc2)C1 (centres unmarked) [Example 43, 2-(4-chlorophenoxy)-N-((1-(2-(4-chlorophenoxy)ethyl)-3-methylpyrrolidin-3-yl)methyl)acetamide]	–
101 to 1000 nM	O=C(COc1ccc(Cl)cc1)NCC1(F)CCN(C(=O)COc2ccc(Cl)cc2)C1 (centres unmarked) [Example 36, 2-(4-chlorophenoxy)-N-((1-(2-(4-chlorophenoxy)acetyl)-3-fluoropyrrolidin-3-yl)methyl)acetamide]	–
1000 to 10000 nM	O=C(COc1ccc(Cl)cc1)NCC1CCN(C(=O)COc2ccc(Cl)nc2)C1 (racemic) [Example 20, 2-(4-chlorophenoxy)-N-((1-(2-((6-chloropyridin-3-yl)oxy)acetyl)pyrrolidin-3-yl)methyl)acetamide]	–
101 to 1000 nM	Cc1cc(Cl)ccc1OCCCN1CCC(CNC(=O)COc2ccc(Cl)cc2)C1 (centres unmarked) [Example 67, N-((1-(3-(4-chloro-2-methylphenoxy)propyl)pyrrolidin-3-yl)methyl)-2-(4-chlorophenoxy)acetamide]	–
< 100 nM	O=C(COc1ccc(Cl)cc1)NCC1CCN(CCCOc2ccc(Cl)cn2)C1 (centres unmarked) [Example 69, 2-(4-chlorophenoxy)-N-((1-(3-((5-chloropyridin-2-yl)oxy)propyl)pyrrolidin-3-yl)methyl)acetamide]	–
101 to 1000 nM	O=C(COc1ccc(Cl)cc1)NCC1CCN(CCCOc2ccc(Cl)cc2)C1=O (centres unmarked) [Example 75, 2-(4-chlorophenoxy)-N-((1-(3-(4-chlorophenoxy)propyl)-2-oxopyrrolidin-3-yl)methyl)acetamide]	–
< 100 nM	O=C(COc1ccc(Cl)cc1)NC1[C@H]2CN(C(CCOc3ccc(Cl)cc3)C(=O)O)C[C@@H]12 (stereo partly drawn) [Example 82, 4-(4-chlorophenoxy)-2-((1R,5S)-6-(2-(4-chlorophenoxy)acetamido)-3-azabicyclo[3.1.0]hexan-3-yl)butanoic acid hydrochloride]	–
< 100 nM	O=C(COc1ccc(Cl)cc1)N[C@H]1[C@@H]2CN(CC(F)COc3ccc(Cl)cc3)C[C@@H]21 (stereo partly drawn) [Example 78, 2-(4-chlorophenoxy)-N-((1R,5S,6s)-3-(3-(4-chlorophenoxy)-2-fluoropropyl)-3-azabicyclo[3.1.0]hexan-6-yl)acetamide]	–
< 100 nM and 69.5 nM	O=C(COc1ccc(Cl)cc1)N[C@H]1[C@@H]2CN(C(=O)C3CC3c3ccc(Cl)cc3)C[C@@H]21 (stereo partly drawn) [Example 37, 2-(4-chlorophenoxy)-N-((1R,5S,6s)-3-(2-(4-chlorophenyl)cyclopropane-1-carbonyl)-3-azabicyclo[3.1.0]hexan-6-yl)acetamide]	–
101 to 1000 nM	O=C(COc1ccc(Cl)cc1)NCCC1CCN(C(=O)COc2ccc(Cl)cc2)C1 (centres unmarked) [Example 16, 2-(4-chlorophenoxy)-N-(2-(1-(2-(4-chlorophenoxy)acetyl)pyrrolidin-3-yl)ethyl)acetamide]	–
< 100 nM	O=C(COc1ccc(C(F)(F)F)cc1)NCC1CCN(CCCOc2ccc(Cl)cc2)C1 (centres unmarked) [Example 45, N-((1-(3-(4-chlorophenoxy)propyl)pyrrolidin-3-yl)methyl)-2-(4-(trifluoromethyl)phenoxy)acetamide]	–
101 to 1000 nM	O=C(COc1ccc(Cl)cc1)NCC1CCN(C(=O)C2Cc3cc(Cl)ccc3O2)C1 (centres unmarked) [Example 9, N-((1-(5-chloro-2,3-dihydrobenzofuran-2-carbonyl)pyrrolidin-3-yl)methyl)-2-(4-chlorophenoxy)acetamide]	–
< 100 nM	O=C(COc1ccc(Cl)cc1)NCC1CCN(CCCOc2ccc(Cl)c(Cl)c2)C1 (centres unmarked) [Example 61, 2-(4-chlorophenoxy)-N-((1-(3-(3,4-dichlorophenoxy)propyl)pyrrolidin-3-yl)methyl)acetamide]	–
101 to 1000 nM	O=C(COc1ccc(Cl)cc1)NOC1CCN(C(=O)C2CC2c2ccc(Cl)cc2)C1 (centres unmarked) [Example 34, 2-(4-chlorophenoxy)-N-((1-(2-(4-chlorophenyl)cyclopropane-1-carbonyl)pyrrolidin-3-yl)oxy)acetamide]	–

Compound	IC50 [1]	IC50 [nM]
O=C(COc1ccc(Cl)cc1)NC[C@H]1CCN(C(=O)COc2ccc(Cl)cc2)C1 [Example 30]	252 nM	101 to 1000

From patent US10851053B2, “Chemical compounds” (GlaxoSmithKline Intellectual Property Development Limited, priority 2016, dated 2020)
